Test results from patent US20240116986A1, “FUSION PEPTIDES CONTAINING DIMERIC ALPHA-HELICES, PEPTIDE-MOLECULARCONJUGATES CONTAINING THE SAME AND NUCLEIC ACID DELIVERY COMPOSITIONSCONTAINING THE SAME” (Artprobio Co., Ltd., priority 2022, published 2024).

Legend:
EGFP mRNA = assay: EMSA of nanostructure formation with EGFP mRNA; format: binding; settings: EMSA; mRNA concentration fixed; incubated overnight
Method: (§1) When a nanostructure was formed through self-assembly by reacting a peptide-molecule conjugate (SAB) with a nucleic acid material (dsDNA or mRNA), agarose gel EMSA was conducted to measure their interactions, binding ratio, stability, etc.
First, the nucleic acid material of a fixed concentration (100 fmol mRNA) was reacted with the peptide-molecule conjugate (SAB) of various concentrations. Immediately before mixing with the nucleic acid material, the peptide-molecule conjugate (SAB) was sonicated for 5 minutes to prevent self-aggregation. The sonicated peptide-molecule conjugate (SAB, 5 μL) was added to the nucleic acid material ([…]) and a nanostructure was prepared by adding distilled water. The sample was prepared by snap cooling. Specifically, after heating at 70° C. for 10 minutes and snap-cooling on ice, the prepared sample was stored at room temperature. The stored sample was mixed with 2 μL of 60% glycerol. Electrophoresis was performed at 100 V for 60 minutes on 0.8% agarose gel using 1×TBE. The band was observed after staining with SYBR™ Gold nucleic acid gel stain (Invitrogen, Waltham, USA).
After sonicating the peptide-molecule conjugate (SAB-gn, n=1 to 6) aqueous solution for 5 minutes, it was immediately mixed with an EGFP mRNA (200 μL) solution. […] An […] nanostructure was prepared as follows by mixing the peptide-molecule conjugate (SAB-gn, n=1 to 6) with the EGFP mRNA. […] The EGFP mRNA and the peptide-molecule conjugate (SAB-gn, n=1 to 6) were mixed at a charge ratio (+/−) of 0, 0.008, 0.016, 0.031, 0.063, 0.125, 0.25, 0.5, 1, 2, 4, 8, 16, 32 or 50.
After incubating the mixture solution overnight and centrifuging at 16,100 g for 30 minutes, the mixture was resuspended in deionized water. After washing twice, the resulting nanostructure was analyzed by EMSA.
After incubating the mixture solution overnight and centrifuging at 16,100 g for 30 minutes, the mixture was resuspended in deionized water.
After heating the mixed solution for 10 minutes at 70° C., it was immediately snap-cooled on ice. RiboRuler Low Range RNA Ladder and RiboRuler High Range RNA Ladder (Thermo Scientific, Waltham, USA) were used on the two lanes on the left side of agarose gel in order to identify the relative locations of the EGFP mRNA bands. The bands of the RiboRuler Low Range RNA Ladder correspond to 1000, 800, 600, 400, 300, 200 and 100 bases, from top to bottom, and the bands of the RiboRuler High Range RNA Ladder correspond to 6000, 4000, 3000, 2000, 1500, 1000, 500 and 200 bases, from top to bottom. Then, the mixtures with charge ratios (+/−) of 0, 0.031, 0.063, 0.125, 0.25, 0.5, 1, 2, 4, 8 and 16 were loaded in sequence.
After heating the mixed solution for 10 minutes at 70° C., it was immediately snap-cooled on ice. RiboRuler High Range RNA Ladder (Thermo Scientific, Waltham, USA) was used on the left side of agarose gel in order to identify the relative locations of the EGFP mRNA bands. The bands of the RiboRuler High Range RNA Ladder correspond to 6000, 4000, 3000, 2000, 1500, 1000, 500 and 200 bases, from top to bottom. Then, the samples were loaded with charge ratios (+/−) of 00, 0.063, 0.125, 0.25, 0.5, 1, 2, 4, 8, 16 and 32 in sequence.

[1] = test system: linear double-stranded DNA (dsDNA) (7528 base pairs); assay: EMSA of nanostructure formation with dsDNA; format: binding
Method: as §1
For this, a pTWIN1 plasmid DNA vector was purchased from New England BioLabs (Ipswich, USA), genetically recombined to express a specific protein (Rev), and then linearized with a BamH1 restriction enzyme purchased from the same company to prepare a linear double-stranded DNA (dsDNA) (7528 base pairs). The peptide-molecule conjugates of Examples 1-3 (SAB1 to SAB3) were dispersed in distilled water to prepare 20 μM aqueous solutions. The SAB1 to SAB3 aqueous solutions (20 μM, 50 μL) were sonicated for at least 5 minutes and then immediately added to the dsDNA solution (200 μL). […] A SAB2/dsDNA nanostructure was prepared by incubating the mixture overnight. Then, after centrifuging at 16,100 g for 30 minutes, the nanostructure was resuspended in deionized water. After washing twice, the nanostructure was analyzed by TEM and EMSA.

[2] = Coating of gold nanoparticles (TEM); settings: citrate-modified AuNP aqueous solution
Method: Colloidal gold was prepared by reducing HAuCl4 with sodium citrate. 50 mL of a 0.01% HAuCl4 (0.243 mM) aqueous solution was boiled vigorously while stirring in a round-bottom flask equipped with a reflux condenser. Then, 10 mL of a 0.1% sodium citrate aqueous solution (3.4 mM) was added to the boiling HAuCl4 solution. The color of the solution turned from yellow to deep purple and then to wine red within 3 minutes. The mixture was boiled further for 10 minutes and cooled to room temperature while continuously stirring overnight. The concentration of the colloidal gold was determined with a spectrophotometer.
It was investigated whether the gold nanoparticles (AuNP) prepared above are coated with the peptide-molecule conjugates prepared in Examples 1-3 (SAB1 to SAB3). First, the peptide-molecule conjugates of Examples 1-3 (SAB1 to SAB3) were dispersed in distilled water to prepare 20 μM aqueous solutions, respectively. After sonicating the SAB1 to SAB3 aqueous solutions (20 μM, 50 μL) for at least 5 minutes, they were immediately added to the AuNP solution (200 μL), respectively. […] After washing twice, the solution was analyzed by CD and TEM.

Ac-(PEG8)-AELAALEAELAALE-(Ahx)2-K-(Ahx)2-KLAALKAKLAALKAG-(PEG8)-NH2 [SAB2]
+/− (optimum charge ratio of EGFP mRNA and conjugate showing completely delayed electrophoretic mobility) (EGFP mRNA): 30
nanostructure formation with dsDNA [1]: best result
charge ratio (+/−) from which delay of EMSA band was observed ([1]; dsDNA concentration fixed): 0.031
charge ratio at which SAB2/dsDNA nanostructure was prepared through self-assembly ([1]; dsDNA concentration fixed): 0.5
dispersibility of coated gold nanoparticles [2]: precipitates were formed due to aggregation of the gold nanoparticles
